Key:
[1] = Dissolution of curcumin powder and dispersion in fasted state simulated gastric fluid; type: physicochemical; details: fasted state simulated gastric fluid pH 1.6, 37° C., 100 rpm, 25 mg equivalent
Protocol: • i. 2 gm of curcumin and 2 gm of stearic acid were dissolved in 200 ml of acetone. • ii. The solution was spray dried using following parameters (Table 1). • iii. DSC and MDSC indicated the crystalline nature of curcumin in the dispersion. The crystallite size measured from powder X-ray diffraction peak broadening by Scherrer equation was 398.6 nm. • iv. Fasted state simulated gastric fluid contained sodium taurocholate (80 μM), lecithin (20 μM), pepsin (0.1 mg/ml), sodium chloride (34.2 mM), sodium lauryl sulphate (0.05% w/v) and hydrochloric acid (q.s. pH 1.6). Samples equivalent to 25 mg of CRM were added into 900 ml dissolution medium and incubated at 37±0.5° C. at 100 rpm.

[2] = Dissolution of powder and dispersion in 900 ml of 100 mM pH 6.8 phosphate buffer at 100 rpm; type: physicochemical; details: 60 mg equivalent
Protocol: • i. 2 gm of hesperetin was dissolved in 150 ml of methanol • ii. 2 gm of mannitol was dissolved in 50 ml of distilled water. • iii. Aqueous mannitol solution was added to methanolic solution of hesperetin. The solution was spray dried using following parameters (Table 10). • iv. DSC and MDSC indicated the crystalline nature of hesperetin in the dispersion. The crystallite size measured from powder X-ray diffraction peak broadening (FIG. 14) by Scherrer equation was 141.06 nm. • v. The dissolution profiles of hesperetin powder and dispersion in 900 ml of 100 mM pH 6.8 phosphate buffer at 100 rpm are presented in Table 11. 60 mg equivalent of hesperetin as powder and dispersion were taken for dissolution studies. • i. 2 gm of Naringenin was dissolved in 150 ml of methanol • ii. 2 gm of mannitol was dissolved in 50 ml of distilled water. • iii. Aqueous mannitol solution was added to methanolic solution of naringenin. The solution was spray dried using following parameters (Table 12). • iv. DSC and MDSC indicated the crystalline nature of naringenin in the dispersion. The crystallite size measured from powder X-ray diffraction peak broadening (FIG. 15) by Scherrer equation was 210.63 nm. • v. The dissolution profiles of naringenin powder and dispersion in 900 ml of 100 mM pH 6.8 phosphate buffer at 100 rpm are presented in Table 13. 60 mg equivalent of naringenin as powder and dispersion were taken for dissolution studies.

in vivo = details: female, SD, rat, po, 250 mg/kg

COc1cc(/C=C/C(=O)CC(=O)/C=C/c2ccc(O)c(OC)c2)ccc1O [Curcumin powder, curcumin]
% Release ([1]; 5 min): 10.8%
% Release ([1]; 10 min): 15.0%
% Release ([1]; 15 min): 15.4%
% Release ([1]; 20 min): 15.1%
% Release ([1]; 30 min): 15.1%
% Release ([1]; 40 min): 15.2%
% Release ([1]; 60 min): 15.0%
% Release ([1]; 80 min): 15.2%
% Release ([1]; 100 min): 15.6%
% Release ([1]; 120 min): 15.3%

COc1ccc([C@@H]2CC(=O)c3c(O)cc(O)cc3O2)cc1O [Hesperetin powder, hesperetin]
% Release ([2]; 0 min): 0.00%
% Release ([2]; 3 min): 1.25%
% Release ([2]; 5 min): 3.06%
% Release ([2]; 10 min): 2.15%
% Release ([2]; 15 min): 1.06%
% Release ([2]; 30 min): 1.48%
% Release ([2]; 60 min): 3.74%
% Release ([2]; 120 min): 7.47%

COc1cc(/C=C/C(=O)CC(=O)/C=C/c2ccc(O)c(OC)c2)ccc1O [Control, curcumin]
AUC(0-inf) (in vivo): 76.2 ng·h/mL
Cmax (in vivo): 58.1 ng/mL
Tmax (in vivo): 0.6 ± 0.1 h
half-life (in vivo): 1.4 ± 0.3 h

O=C1C[C@@H](c2ccc(O)cc2)Oc2cc(O)cc(O)c21 [Naringenin powder, naringenin]
% Release ([2]; 0 min): 1.60%
% Release ([2]; 3 min): 5.84%
% Release ([2]; 5 min): 9.54%
% Release ([2]; 10 min): 11.52%
% Release ([2]; 15 min): 17.32%
% Release ([2]; 30 min): 23.34%
% Release ([2]; 60 min): 26.25%
% Release ([2]; 120 min): 25.14%

Source: patent publication US9801855B2, “Nanocrystalline solid dispersion compositions and process of preparation thereof” (NATIONAL INSTITUTE OF PHARMACEUTICAL EDUCATION AND RESEARCH …, priority 2012, dated 2017)
